Patent publication US20240148821A1, “PHARMACEUTICAL USE OF CYCLIC PEPTIDE COMPOUND” (CHUGAI SEIYAKU KABUSHIKI KAISHA, priority 2021, published 2024)
Numbered stars: 1 amine (or outer) side, 2 acyl side, 3 side chain; on linkers, the order of the positions; unused ones are H or OH. Bridge positions count the residues as written; N and C are the ends. Square brackets hold non-standard residues; d marks the D form. Peptide text beside a SMILES is read from it. * marks the point of attachment. hPhe(3-Cl-4-CF3) = N[C@@H](CCc1ccc(C(F)(F)F)c(Cl)c1)C(=O)O; hPhe(3-F,4-CF3) = N[C@@H](CCc1ccc(C(F)(F)F)c(F)c1)C(=O)O; hPhe(4-CF3) = N[C@@H](CCc1ccc(C(F)(F)F)cc1)C(=O)O; 3Oxa8azabicyclo(3.2.1)octane = C1CC2COCC1N2*; NMePhe(4-Cl) = CN[C@@H](Cc1ccc(Cl)cc1)C(=O)O; NMePhe(4-Me) = CN[C@@H](Cc1ccc(C)cc1)C(=O)O; NMeGly(cPent) = CN[C@H](C(=O)O)C1CCCC1; Gly(cPent) = N[C@H](C(=O)O)C1CCCC1; NMeCha = CN[C@@H](CC1CCCCC1)C(=O)O; NMeE = CN[C@@H](CCC(=O)O)C(=O)O; NMeβAla = CN(CCC(=O)[*:2])[*:1]; NMeD = CN[C@@H](CC(=O)O)C(=O)O; NMeL = CN[C@@H](CC(C)C)C(=O)O; NMeV = CN[C@H](C(=O)O)C(C)C; d(β3hA) = C[C@@H](N)CC(=O)O; Azetidin(1-yl) = C1CN(*)C1; NMeS = CN[C@@H](CO)C(=O)O; Morpholide = C1CN(*)CCO1; NMeA = CN[C@@H](C)C(=O)O; NMeAib = CNC(C)(C)C(=O)O; Piperidide = C1CCN(*)CC1; Ac5c = NC1(C(=O)O)CCCC1; Aze = O=C(O)[C@@H]1CCN1; CH2CMe2OH = CC(C)(O)C*; NBuGly = CCCCNCC(=O)O; Aib = CC(C)(N)C(=O)O; Isopentyl = CC(C)CC*; NEtG = CCNCC(=O)O; Sar = CNCC(=O)O; Propyl = CCC*

Each compound was assayed against protein-protein interaction between Kras and SOS1 (biotin-tagged human Kras loaded with GDP, His-tagged human SOS1) (Homo sapiens (Human), UniProt P01116, G12D) (assay: Protein-protein interaction inhibition between Kras and SOS1 (KrasG12D-SOS PPI) using AlphaScreen). Conditions: AlphaScreen; biotin-tagged human Kras loaded with GDP, His-tagged human SOS1; read-out: KRAS G12D-SOS PPI IC50.
Assay type: biochemical

In order of rising IC50:
1. CC[C@H](C)[C@@H]1NC(=O)[C@H](CC(C)C)N(C)C(=O)C[C@@H](C(=O)N2CCCCC2)N(C)C(=O)[C@H](C2CCCC2)N(C)C(=O)C2(CCCC2)NC(=O)[C@@H]2CCCN2C(=O)[C@H](CCc2ccc(C(F)(F)F)c(Cl)c2)NC(=O)CN(C)C(=O)[C@H](C2CCCC2)N(C)C(=O)[C@@H]2CCN2C(=O)[C@H](C)N(C)C1=O [Compound 182] ([NMeL]I[NMeA][Aze][NMeGly(cPent)][Sar][hPhe(3-Cl-4-CF3)]P[Ac5c][NMeGly(cPent)][NMeD]-Piperidide; lactam N-11)  0.98 nM
2. CCCOC[C@H]1C(=O)N(C)CC(=O)N[C@@H](CCc2ccc(C(F)(F)F)c(Cl)c2)C(=O)N2CCC[C@H]2C(=O)NC2(CCCC2)C(=O)N(C)[C@@H](C2CCCC2)C(=O)N(C)[C@H](C(=O)N2C3CCC2COC3)CC(=O)N(C)[C@@H](CC(C)C)C(=O)N[C@@H]([C@@H](C)CC)C(=O)N[C@@H](C)C(=O)N2CC[C@H]2C(=O)N1C [Compound 1299] ([NMeL]IA[Aze][NMeS](Propyl)[Sar][hPhe(3-Cl-4-CF3)]P[Ac5c][NMeGly(cPent)][NMeD]-{3Oxa8azabicyclo(3.2.1)octane}; lactam N-11)  3.6 nM
3. CC[C@H](C)[C@@H]1NC(=O)[C@H](CC(C)C)N(C)C(=O)C[C@@H](C(=O)N(C)C)NC(=O)[C@H](C2CCCC2)N(C)C(=O)C2(CCCC2)NC(=O)[C@@H]2CCCN2C(=O)[C@H](CCc2ccc(C(F)(F)F)c(Cl)c2)NC(=O)CN(C)C(=O)[C@H](CC2CCCCC2)N(C)C(=O)[C@@H]2CCN2C(=O)[C@H](C)N(C)C1=O [Compound 677] ([NMeL]I[NMeA][Aze][NMeCha][Sar][hPhe(3-Cl-4-CF3)]P[Ac5c][NMeGly(cPent)]D-NMe2; lactam N-11)  4.1 nM
4. CC[C@H](C)[C@@H]1NC(=O)[C@H](CC(C)C)N(C)C(=O)C[C@@H](C(=O)N2CCOCC2)N(C)C(=O)[C@H](C2CCCC2)N(C)C(=O)C2(CCCC2)NC(=O)[C@H](CCC(=O)N2CCC2)N(C)C(=O)[C@H](CCc2ccc(C(F)(F)F)c(Cl)c2)NC(=O)CN(C)C(=O)[C@H](CC2CCCCC2)N(C)C(=O)[C@@H]2CCN2C(=O)[C@H](C)N(C)C1=O [Compound 2103] ([NMeL]I[NMeA][Aze][NMeCha][Sar][hPhe(3-Cl-4-CF3)][NMeE](Azetidin(1-yl))[Ac5c][NMeGly(cPent)][NMeD]-Morpholide; lactam N-11)  8.3 nM
5. CC[C@H](C)[C@@H]1NC(=O)[C@H](C2CCCC2)N(C)C(=O)C[C@@H](C(=O)N2CCCCC2)N(C)C(=O)[C@H](C(C)C)N(C)C(=O)C2(CCCC2)NC(=O)[C@@H]2CCCN2C(=O)[C@H](CCc2ccc(C(F)(F)F)c(Cl)c2)NC(=O)CN(C)C(=O)[C@H](CC2CCCCC2)N(C)C(=O)[C@@H]2CCN2C(=O)[C@H](C)N(C)C1=O [Compound 225] ([NMeGly(cPent)]I[NMeA][Aze][NMeCha][Sar][hPhe(3-Cl-4-CF3)]P[Ac5c][NMeV][NMeD]-Piperidide; lactam N-11)  15 nM
6. CC[C@H](C)[C@@H]1NC(=O)[C@H](CC(C)C)N(C)C(=O)C[C@@H](C)NC(=O)[C@H](C2CCCC2)NC(=O)C2(CCCC2)NC(=O)[C@@H]2CCCN2C(=O)[C@H](CCc2ccc(C(F)(F)F)c(Cl)c2)NC(=O)CN(C)C(=O)[C@H](Cc2ccc(C)cc2)N(C)C(=O)[C@@H]2CCN2C(=O)[C@H](C)N(C)C1=O [Compound 1213] (cyclo([Ac5c][Gly(cPent)][d(β3hA)][NMeL]I[NMeA][Aze][NMePhe(4-Me)][Sar][hPhe(3-Cl-4-CF3)]P))  17 nM
7. CC[C@H](C)[C@@H]1NC(=O)[C@H](CC(C)C)N(C)C(=O)CCN(C)C(=O)[C@H](CC(C)C)NC(=O)C(C)(C)N(C)C(=O)[C@H](CC(C)C)NC(=O)[C@H](CCc2ccc(C(F)(F)F)c(F)c2)NC(=O)CN(C)C(=O)[C@H](CC2CCCCC2)N(C)C(=O)CN(C)C(=O)CN(C)C1=O [Compound 832] (cyclo(I[Sar][Sar][NMeCha][Sar][hPhe(3-F,4-CF3)]L[NMeAib]L[NMeβAla][NMeL]))  120 nM
8. CCCCN1CC(=O)N(C)CC(=O)N(C)[C@@H](Cc2ccc(Cl)cc2)C(=O)N(C)CC(=O)N[C@@H](CCc2ccc(C(F)(F)F)cc2)C(=O)N(C)[C@@H](CC(C)C)C(=O)NC(C)(C)C(=O)N(C)[C@@H](CC(C)C)C(=O)N[C@H](C)CC(=O)N(C)[C@@H](C)C(=O)N[C@@H]([C@@H](C)CC)C1=O [Compound 436] (cyclo([Aib][NMeL][d(β3hA)][NMeA]I[NBuGly][Sar][NMePhe(4-Cl)][Sar][hPhe(4-CF3)][NMeL]))  160 nM
9. CC[C@H](C)[C@@H]1NC(=O)[C@H](CC(C)C)N(C)C(=O)C[C@@H](C)NC(=O)[C@H](CC(C)C)N(C)C(=O)C(C)(C)NC(=O)[C@H](COCC(C)(C)O)N(C)C(=O)[C@H](CCc2ccc(C(F)(F)F)c(Cl)c2)NC(=O)CN(CC)C(=O)[C@H](COCCC(C)C)N(C)C(=O)CN(C)C(=O)CN(C)C1=O [Compound 1516] (cyclo([Aib][NMeL][d(β3hA)][NMeL]I[Sar][Sar][NMeS](Isopentyl)[NEtG][hPhe(3-Cl-4-CF3)][NMeS](CH2CMe2OH)))  340 nM
